According to patent publication US9856242B2, “5-fluoro-N-(pyridin-2-yl)pyridin-2-amine derivatives containing a sulfone group” (Bayer Pharma Aktiengesellschaft, priority 2014, dated 2018):

Experiments:
CDK2/CycE = biological target: T1, CDK2/CycE (Homo sapiens, UniProt P24941); experiment: CDK2/CycE kinase assay (Method 2a, TR-FRET, 10 μM ATP); type: biochemical
T1 construct: GST; purchased ProQinase GmbH (Freiburg, Germany); host or cells: insect cells (Sf9)
Source text: 2a. CDK2/CycE Kinase Assay:
CDK2/CycE-inhibitory activity of compounds of the present invention was quantified employing the CDK2/CycE TR-FRET assay as described in the following paragraphs:
Recombinant fusion proteins of GST and human CDK2 and of GST and human CycE, expressed in insect cells (Sf9) and purified by Glutathion-Sepharose affinity chromatography, were purchased from ProQinase GmbH (Freiburg, Germany). As substrate for the kinase reaction biotinylated peptide biotin-Ttds-YISPLKSPYKISEG (C-terminus in amid form) was used which can be purchased e.g. form the company JERINI Peptide Technologies (Berlin, Germany).
(§1) For the assay 50 n1 of a 100 fold concentrated solution of the test compound in DMSO was pipetted into a black low volume 384 well microtiter plate (Greiner Bio-One, Frickenhausen, Germany), 2 μl of a solution of CDK2/CycE in aqueous assay buffer [50 mM Tris/HCl pH 8.0, 10 mM MgCl2, 1.0 mM dithiothreitol, 0.1 mM sodium ortho-vanadate, 0.01% (v/v) Nonidet-P40 (Sigma)] were added and the mixture was incubated for 15 min at 22° C. to allow pre-binding of the test compounds to the enzyme before the start of the kinase reaction. Then the kinase reaction was started by the addition of 3 μl of a solution of adenosine-tri-phosphate (ATP, 16.7 μM=>final conc. in the 5 μl assay volume is 10 μM) and substrate (1.25 μM=>final conc. in the 5 μl assay volume is 0.75 μM) in assay buffer and the resulting mixture was incubated for a reaction time of 25 min at 22° C. The concentration of CDK2/CycE was adjusted depending of the activity of the enzyme lot and was chosen appropriate to have the assay in the linear range, typical concentrations were in the range of 130 ng/mL. The reaction was stopped by the addition of 5 μl of a solution of TR-FRET detection reagents (0.2 μM streptavidine-XL665 [Cisbio Bioassays, Codolet, France] and 1 nM anti-RB(pSer807/pSer811)-antibody from BD Pharmingen [#558389] and 1.2 nM LANCE EU-W1024 labeled anti-mouse IgG antibody [Perkin-Elmer, product no. AD0077]) in an aqueous EDTA-solution (100 mM EDTA, 0.2% (w/v) bovine serum albumin in 100 mM HEPES/NaOH pH 7.0).
(§2) The resulting mixture was incubated 1 h at 22° C. to allow the formation of complex between the phosphorylated biotinylated peptide and the detection reagents. Subsequently the amount of phosphorylated substrate was evaluated by measurement of the resonance energy transfer from the Eu-chelate to the streptavidine-XL. Therefore, the fluorescence emissions at 620 nm and 665 nm after excitation at 350 nm was measured in a TR-FRET reader, e.g. a Rubystar (BMG Labtechnologies, Offenburg, Germany) or a Viewlux (Perkin-Elmer). The ratio of the emissions at 665 nm and at […] was taken as the measure for the amount of phosphorylated substrate. The data were normalised (enzyme reaction without inhibitor=0% inhibition, all other assay components but no enzyme=100% inhibition).

CDK9/CycT1 = biological target: T2, CDK9/CycT1 (Homo sapiens, UniProt P50750); experiment: CDK9/CycT1 kinase assay (Method 1a, TR-FRET, 10 μM ATP); type: biochemical; conditions: for IC50: Method 1a, 10 μM ATP; for Selectivity CDK9/CDK2: according to Methods 1a and 2a (ratio of CDK2 IC50 to CDK9 IC50)
T2 construct: Recombinant full-length His-tagged human CDK9 and CycT1; His; purchased Invitrogen PV4131; host or cells: insect cells
Source text: 1a. CDK9/CycT1 Kinase Assay:
CDK9/CycT1-inhibitory activity of compounds of the present invention was quantified employing the CDK9/CycT1 TR-FRET assay as described in the following paragraphs:
as §1, with “Recombinant full-length His-tagged human CDK9 and CycT1, expressed in insect cells and purified by Ni-NTA affinity chromatography, were purchased from Invitrogen (Cat. No PV4131). As substrate for the kinase reaction biotinylated peptide biotin-Ttds-YISPLKSPYKISEG (C-terminus in amid form) was used which can be purchased e.g. form the company JERINI Peptide Technologies (Berlin, Germany). For” for “For”, “CDK9/CycT1” for “CDK2/CycE”, “(1.67” for “(1.25”, “1” for “0.75”, “1 μg/mL.” for “130 ng/mL.”
as §2, with “HTRF” for “TR-FRET”

T2 sequence (P50750 whole entry): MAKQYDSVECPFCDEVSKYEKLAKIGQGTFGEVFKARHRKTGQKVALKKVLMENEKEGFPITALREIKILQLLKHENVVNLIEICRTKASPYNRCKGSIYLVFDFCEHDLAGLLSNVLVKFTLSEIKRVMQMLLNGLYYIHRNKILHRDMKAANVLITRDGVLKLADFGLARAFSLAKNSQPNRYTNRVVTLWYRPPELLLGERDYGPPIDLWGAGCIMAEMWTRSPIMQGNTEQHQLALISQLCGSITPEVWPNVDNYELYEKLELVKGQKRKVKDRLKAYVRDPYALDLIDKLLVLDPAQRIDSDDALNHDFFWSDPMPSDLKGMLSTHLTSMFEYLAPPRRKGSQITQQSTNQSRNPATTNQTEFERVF
T2 sequence (O60563 whole entry partner): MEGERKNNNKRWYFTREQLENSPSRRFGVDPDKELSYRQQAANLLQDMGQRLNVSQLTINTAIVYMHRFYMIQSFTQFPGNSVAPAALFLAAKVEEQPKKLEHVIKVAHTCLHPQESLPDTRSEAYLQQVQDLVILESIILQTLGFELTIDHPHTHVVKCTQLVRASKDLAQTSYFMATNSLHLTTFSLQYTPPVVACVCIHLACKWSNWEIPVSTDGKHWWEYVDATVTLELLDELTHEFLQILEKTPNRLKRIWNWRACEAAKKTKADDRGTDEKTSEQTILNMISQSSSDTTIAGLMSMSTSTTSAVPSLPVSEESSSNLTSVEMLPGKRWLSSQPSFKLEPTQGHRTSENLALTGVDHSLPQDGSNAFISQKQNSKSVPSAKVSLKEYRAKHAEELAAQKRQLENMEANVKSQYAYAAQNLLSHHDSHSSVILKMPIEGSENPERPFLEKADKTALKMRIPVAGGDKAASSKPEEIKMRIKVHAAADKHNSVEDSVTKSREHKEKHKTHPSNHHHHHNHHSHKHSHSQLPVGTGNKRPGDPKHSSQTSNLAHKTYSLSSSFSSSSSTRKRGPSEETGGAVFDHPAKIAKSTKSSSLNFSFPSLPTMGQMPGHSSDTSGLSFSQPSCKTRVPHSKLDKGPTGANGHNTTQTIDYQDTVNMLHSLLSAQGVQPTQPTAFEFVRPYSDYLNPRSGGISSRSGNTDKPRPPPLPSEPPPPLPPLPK

| SMILES | IC50 (CDK2/CycE) [nM] | IC50 (CDK9/CycT1) [nM] | Selectivity CDK9/CDK2 (CDK9/CycT1) |
| --- | --- | --- | --- |
| CS(=O)(=O)Cc1cc(F)nc(Nc2cc(-c3ccc(F)c4ccoc34)c(F)cn2)c1 [Example 2, 5-Fluoro-4-(4-fluoro-1-benzofuran-7-yl)-N-{6-fluoro-4-[(methylsulfonyl)methyl]pyridin-2-yl}pyridin-2-amine] | 71 | 4 | 18 |
| Cc1cc(CS(C)(=O)=O)cc(Nc2cc(-c3ccc(F)c4ccoc34)c(F)cn2)n1 [Example 3, 5-Fluoro-4-(4-fluoro-1-benzofuran-7-yl)-N-{6-methyl-4-[(methylsulfonyl)methyl]pyridin-2-yl}pyridin-2-amine] | 46 | – | – |
| CS(=O)(=O)Cc1cc(Nc2cc(-c3ccc(F)c4ccoc34)c(F)cn2)nc(C(F)(F)F)c1 [Example 4, 5-Fluoro-4-(4-fluoro-1-benzofuran-7-yl)-N-{4-[(methylsulfonyl)methyl]-6-(trifluoromethyl)pyridin-2-yl}pyridin-2-amine] | 33 | – | – |
| CS(=O)(=O)Cc1ccnc(Nc2cc(-c3ccc(F)c4ccoc34)c(F)cn2)c1 [Example 1, 5-Fluoro-4-(4-fluoro-1-benzofuran-7-yl)-N-{4-[(methylsulfonyl)methyl]pyridin-2-yl}pyridin-2-amine] | 87 | 3 | 29 |
| CS(=O)(=O)Cc1ccnc(Nc2cc(-c3cccc4ccoc34)c(F)cn2)c1 [Example 5, 4-(1-Benzofuran-7-yl)-5-fluoro-N-{4-[(methylsulfonyl)methyl]pyridin-2-yl}pyridin-2-amine] | 69 | 4 | 17 |
